Source: paper PMC12527173, “Cytotoxic, anti-inflammatory, antioxidant, and anti-glyoxalase-I evaluation of chelating substances: In silico and in vitro study” (PLOS One, 2025)
Where two headings read alike, the source gives them in different places.

What was measured:
[1] = target: T1, human recombinant Glo-I enzyme (rhGlo-I) (Homo sapiens, UniProt Q04760); experiment: Glyoxalase-I (Glo-I) enzyme inhibition assay; type: biochemical; conditions: for Maximum (descriptive statistics of enzyme inhibition): highest mean inhibition over the tested concentrations; for Maximum (descriptive statistics of enzyme inhibition) / Minimum (descriptive statistics of enzyme inhibition): in % (unit assumed); for Minimum (descriptive statistics of enzyme inhibition): lowest mean inhibition over the tested concentrations
T1 construct: N-terminal Met and 6-His tag (N); purchased R&D Systems; host or cells: E. coli
T1 sequence (Q04760 2-184 limits assumed): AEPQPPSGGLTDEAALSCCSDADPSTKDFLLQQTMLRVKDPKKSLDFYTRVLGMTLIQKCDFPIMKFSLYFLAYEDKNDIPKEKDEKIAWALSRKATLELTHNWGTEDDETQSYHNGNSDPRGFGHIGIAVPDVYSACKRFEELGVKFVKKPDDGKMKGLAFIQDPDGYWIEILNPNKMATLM
Description: Solvents and chemicals were procured from Sigma-Aldrich Co. and Acros (ThermoFisher Scientific, New Jersey, USA). […] The enzyme was obtained from R&D Systems® Corporation in the USA. Synthetic compounds were tested for their inhibitory effects on the enzyme using a 10 mM DMSO stock concentration in triplicates. The manufacturer’s protocol from R & D Systems, Inc. in Minneapolis, MN, USA was followed for the in vitro experiments. The reconstituted Glo-I enzyme (0.5 mg/mL) was thawed after being stored at −70°C in sterile deionized water. […] The monitoring was done at a wavelength of 240 nm for 200 seconds at 37°C. The substrate mixture was freshly concocted with a concentration of 100 mM glutathione and 100 mM methylglyoxal (MG) in assay buffer containing 0.5 M sodium phosphate dibasic/monobasic. It was then left undisturbed at room temperature for 15 minutes […]. The selected compounds for investigation are subsequently produced in testing concentration ranges using a 0.1 M solution of sodium phosphate dibasic/monobasic with a pH range of 7–7.2. The blank contained an assay buffer with MG substrate. The test compounds were combined with human recombinant Glo-I (50 µM) in a 96-well plate to determine their kinetic behavior.

[2] = test system: CACO2 colorectal cancer cell line; experiment: SRB cytotoxicity assay, CACO2; type: cell-based; conditions: Homo sapiens, Caco-2, 72 h incubation, n = 12, read-out: Cytotoxicity (as of %Control) IC50 value CACO2
Summary of the method: (§1)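 SRB colorimetric read-out, expressed as % of control optical density; IC50 derived by regression analysis of dose-response curves. Test substances and a reference drug were applied at 5 to 200 μg/mL, with periodontal ligament fibroblasts as the non-cancer comparator.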

[3] = test system: HCT116 colorectal cancer cell line; experiment: SRB cytotoxicity assay, HCT116; type: cell-based; conditions: Homo sapiens, HCT-116, 72 h incubation, n = 12, read-out: Cytotoxicity (as of %Control) IC50 value HCT116
Summary of the method: as §1

[4] = test system: SW620 colorectal cancer cell line; experiment: SRB cytotoxicity assay, SW620; type: cell-based; conditions: Homo sapiens, SW-620, 72 h incubation, n = 12, read-out: Cytotoxicity (as of %Control) IC50 value SW620
Summary of the method: as §1

[5] = test system: HT-29 colorectal cancer cell line; experiment: SRB cytotoxicity assay, HT29; type: cell-based; conditions: Homo sapiens, 72 h incubation, n = 12, read-out: Cytotoxicity (as of %Control) IC50 value HT29
Summary of the method: as §1

[6] = SRB cytotoxicity assay, normal PDL fibroblasts; type: cell-based; conditions: normal periodontal ligament (PDL) fibroblasts, 72 h incubation, 0.1–200 µM range, read-out: Cytotoxicity (as of %Control) IC50 value PDL fibroblasts
Summary of the method: as §1

[7] = test system: A375 human skin cancer cell line; experiment: SRB cytotoxicity assay, A375; type: cell-based; conditions: A-375, 72 h incubation, n = 12, read-out: Cytotoxicity (as of %Control) IC50 value A375 skin melanoma
Summary of the method: as §1

[8] = test system: Human PC3 prostate cancer cell line; experiment: SRB cytotoxicity assay, PC3; type: cell-based; conditions: 72 h incubation, n = 12, read-out: Cytotoxicity (as of %Control) IC50 value PC3 prostate malignancy
Summary of the method: as §1

[9] = test system: Breast cancer cell line MCF7; experiment: SRB cytotoxicity assay, MCF7; type: cell-based; conditions: Homo sapiens, 72 h incubation, n = 12, read-out: Cytotoxicity (as of %Control) IC50 value MCF7 mammary malignancy
Summary of the method: as §1

[10] = test system: T47D breast cancer cell line; experiment: SRB cytotoxicity assay, T47D; type: cell-based; conditions: Homo sapiens, 72 h incubation, n = 12, read-out: Cytotoxicity (as of %Control) IC50 value T47D mammary malignancy
Summary of the method: as §1

[11] = test system: HeLa uterine cervix adenocarcinoma cell line; experiment: SRB cytotoxicity assay, HeLa; type: cell-based; conditions: Homo sapiens, 72 h incubation, n = 12, read-out: Cytotoxicity (as of %Control) IC50 value Hela cervix malignancy
Summary of the method: as §1

[12] = test system: cancer cell lines (panel); experiment: SRB cytotoxicity assay, ranges stated over several cancer cell lines; type: cell-based; conditions: Homo sapiens
Description: The cancer cell lines were cultured in DMEM supplemented with 10% FBS (Bio Whittaker, Verviers, Belgium), HEPES Buffer (10 mM), gentamicin (50 µg/mL), L-glutamine (100 μg/mL), streptomycin ([…]), penicillin (100 µg/mL), and 4-(2-hydroxyethyl)-1-piperazineethanesulfonic acid (HEPES) Buffer (Sigma, St. Luis, MO, USA). The Sulforhodamine B used was obtained from Santa Cruz Biotechnology, Inc. in Texas, USA. […] Periodontal ligament fibroblasts (PDL) were utilized to assess specific cytotoxicity. Cancer cell lines that have survived offer several benefits. They provide a consistent and uninterrupted source of cells, so bypassing any ethical concerns related to the use of human tissue. Additionally, they are cost-effective. The cytotoxicity levels were assessed using the Sulforhodamine B (SRB) colorimetric assay, provided by Santa Cruz Biotechnology, Inc. in Texas, USA. The Spectro Scan 80D UV-VIS spectrophotometer, manufactured by Sedico Ltd. in Nicosia, Cyprus, was employed for this cytotoxicity screening. The cells were co-incubated with substances or a reference agent at various doses ranging from 5 to 200 μg/mL. […] The reduction in cell viability was analyzed by plotting Dose-response curves and expressing the data as a percentage of the control optical density. The IC50 values were obtained using regression analysis.

[13] = 3.125 µM, read-out: Trial one (%inhibtion)
[14] = 3.125 µM, read-out: Trial three (%inhibtion)
[15] = 3.125 µM, read-out: Trial two (%inhibtion)
[16] = 6.25 µM, read-out: Trial one (%inhibtion)
[17] = 6.25 µM, read-out: Trial three (%inhibtion)
[18] = 6.25 µM, read-out: Trial two (%inhibtion)
[19] = 12.5 µM, read-out: Trial one (%inhibtion)
[20] = 12.5 µM, read-out: Trial three (%inhibtion)
[21] = 12.5 µM, read-out: Trial two (%inhibtion)
[22] = 25 µM, read-out: Trial one (%inhibtion)
[23] = 25 µM, read-out: Trial three (%inhibtion)
[24] = 25 µM, read-out: Trial two (%inhibtion)
[25] = 50 µM, read-out: Trial one (%inhibtion)
[26] = 50 µM, read-out: Trial three (%inhibtion)
[27] = 50 µM, read-out: Trial two (%inhibtion)
[28] = human recombinant Glo-I, triplicates, read-out: IC50 µM ± SD
[29] = read-out: Trial one (%inhibtion)
[30] = read-out: Trial three (%inhibtion)
[31] = read-out: Trial two (%inhibtion)

Row | SMILES | inhibition at 3.125 µM [1, 13] [%] | inhibition at 3.125 µM [1, 14] [%] | inhibition at 3.125 µM [1, 15] [%] | inhibition at 6.25 µM [1, 16] [%] | inhibition at 6.25 µM [1, 17] [%] | inhibition at 6.25 µM [1, 18] [%] | inhibition at 12.5 µM [1, 19] [%] | inhibition at 12.5 µM [1, 20] [%] | Maximum (descriptive statistics of enzyme inhibition) [1] | Minimum (descriptive statistics of enzyme inhibition) [1] | IC50 [2] [µM] | IC50 [3] [µM] | IC50 [4] [µM] | IC50 [5] [µM] | IC50 at 72 h [6] [µM] | IC50 [7] [µM] | IC50 [8] [µM] | IC50 [9] [µM] | IC50 [10] [µM] | IC50 [11] [µM] | further results
1 | Cc1ccc(C(=O)c2cc(O)c(O)c([N+](=O)[O-])c2)cc1 [Tolcapone, reference compound] | 12.3 | 20.4 | 19.4 | 28 | 36.3 | 39.7 | 54.2 | 56.5 | 98.66 | 17.38 | 94.8 ± 6.65 | 86.2 ± 6.6 | 105 ± 8.35 | 63.3 ± 1.03 | > 200 | 64.1 ± 1.1 | 257 ± 37.1 | 25.6 ± 1.49 | 26.9 ± 0.35 | 39.35 ± 0.35 | inhibition at 12.5 µM [1, 21]: 60.9%; inhibition at 25 µM [1, 22]: 78.1%; inhibition at 25 µM [1, 23]: 80.9%; inhibition at 25 µM [1, 24]: 82.1%; inhibition at 50 µM [1, 25]: 96.1%; inhibition at 50 µM [1, 26]: 102%; inhibition at 50 µM [1, 27]: 97.6%; IC50 [1, 28]: 9.6 µM
2 | CC(C)=CC[C@@H](O)C1=CC(=O)c2c(O)ccc(O)c2C1=O [Shikonin] | – | – | – | – | – | – | – | – | 100.7 | 23.58 | 43.8 ± 4.97 | 108 ± 2.6 | 60.3 ± 2.07 | 142.3 ± 0.76 | > 200 | 56.5 ± 6.9 | 176.2 ± 1.25 | 37.8 ± 3.89 | 30.9 ± 3.66 | 13.9 ± 1.91 | IC50 [1]: 8.1 µM; inhibition at 3.125 µM [1, 29]: 16.9%; inhibition at 6.25 µM [1, 29]: 34.8%; inhibition at 12.5 µM [1, 29]: 59.4%; inhibition at 25 µM [1, 29]: 72.5%; inhibition at 50 µM [1, 29]: 104%; inhibition at 3.125 µM [1, 30]: 30%; inhibition at 6.25 µM [1, 30]: 51.3%; inhibition at 12.5 µM [1, 30]: 61%; inhibition at 25 µM [1, 30]: 73.9%; inhibition at 50 µM [1, 30]: 101%; inhibition at 3.125 µM [1, 31]: 23.8%; inhibition at 6.25 µM [1, 31]: 45.8%; inhibition at 12.5 µM [1, 31]: 65.1%; inhibition at 25 µM [1, 31]: 74.2%; inhibition at 50 µM [1, 31]: 96.9%
3 | CC(/C=C/C(=O)NO)=C\[C@@H](C)C(=O)c1ccc(N(C)C)cc1 [Trichostatin A, reference compound] | 13.2 | 7.44 | 2.77 | 22.3 | 14.2 | 16.5 | 29.4 | 24.7 | 47.33 | 7.808 | 27.1 ± 1.28 | 14 ± 2.5 | 19.5 | 27 ± 0.85 | > 200 | 5.6 ± 0.6 | 47.5 ± 3.96 | 2.25 ± 0.49 | 14.7 ± 0.28 | 1.4 ± 0.2 | inhibition at 12.5 µM [1, 21]: 25%; inhibition at 25 µM [1, 22]: 39.7%; inhibition at 25 µM [1, 23]: 33.7%; inhibition at 25 µM [1, 24]: 38.4%; inhibition at 50 µM [1, 25]: 52.1%; inhibition at 50 µM [1, 26]: 38.8%; inhibition at 50 µM [1, 27]: 51.1%; IC50 [1, 28]: 43.5 ± 15.6 µM; IC50 ([12]; Pancreatic cancer cell, after 72 hours of incubation, read-out: IC50, colorectal and pancreatic cancer cells): ≤ 27 µM; IC50 ([12]; A375, A549, PC3, MCF7, T47D, HeLa, read-out: IC50 range, decreases in viability in other cancer cell cultures): 1.4 to 14.7 µM; IC50 ([12]; CACO2, HCT116, SW620, HT29, read-out: IC50 range, anti-proliferation in colorectal cancer cells): 14 to 27 µM; IC50 ([12]; Table 3 cell lines, read-out: IC50, skin melanoma, lung carcinoma, mammary and cervix adenocarcinomas): < 10 µM
